Laboratory results taken from US20190388494A1, “THERAPEUTIC COMBINATIONS FOR THE TREATMENT OF BACTERIAL INFECTIONS” (SETLANCE S.R.L., priority 2017, published 2019).
In brackets after ≈: the same amount, converted by molar mass. Like-named read-outs stand apart in the source and are kept apart here.

Assays:
A. baumannii N50 [1] = assay: microbe, parasite or virus in culture; assay type: cell-based; conditions: Acinetobacter baumannii
Protocol: (§1) Activity of SET-M33 and antibiotics was evaluated on six well characterized clinical strains. The strains were selected according to their resistance phenotypes and genotypes.
(§2) MICs were determined using a standard broth microdilution assay according to the guidelines of the Clinical and Laboratory Standards Institute.

K. pneumoniae 044-R [2] = assay: microbe, parasite or virus in culture; assay type: cell-based; conditions: Klebsiella pneumoniae; agent alone; K. pneumoniae 044-R (XDR, KPC, colR)
Protocol: as §1, §2

K. pneumoniae KKBO-4 [3] = assay: microbe, parasite or virus in culture; assay type: cell-based; conditions: Klebsiella pneumoniae, KKBO4
Protocol: as §1, §2

P. aeruginosa 854 [4] = assay: Antimicrobial activity in combination, checkerboard method; assay type: cell-based, Pseudomonas aeruginosa; conditions: for MIC in combination, ATB: antimicrobial agent in combination with SET-M33
Protocol: as §1
(§3) Antimicrobial activity in combination was evaluated, in duplicate for each of the six strains, with the checkerboard method using cation-adjusted Mueller-Hinton broth (MHB) in 96-well microtiter plates (Sarstedt, Inc., Newton, N.C.). Assays were performed using a final bacterial inoculum of 5×10^4 CFU/well in a final volume of 100 μl. Results were recorded after 20 h of incubation at 35° C. The total fractional inhibitory concentration (ΣFIC) for each antibiotic combination was calculated according to EUCAST definitive document E.Def 1.2 [16] as follows: ΣFIC equals FIC of agent A plus FIC of agent B, where the FIC of agent A or B is the MIC of agent A or B in the presence of the other divided by the MIC of agent A or B alone. Results were interpreted according to the following definition: a ΣFIC of ≤0.5 indicated synergism, a ΣFIC of >0.5 to 1 indicated additivity, a ΣFIC of >1 to <2 indicated indifference, and a ΣFIC of ≥2 antagonism.

P. aeruginosa AV65 [5] = assay: as above; assay type: cell-based, Pseudomonas aeruginosa; conditions: for MIC in combination, ATB: antimicrobial agent in combination with SET-M33
Protocol: as §1, §3

P. aeruginosa 854 [6] = assay: microbe, parasite or virus in culture; assay type: cell-based, Pseudomonas aeruginosa
Protocol: as §1, §2

K. pneumoniae 044-R [7] = assay: Antimicrobial activity in combination, checkerboard method; assay type: cell-based, Klebsiella pneumoniae; conditions: for MIC in combination, ATB: antimicrobial agent in combination with SET-M33
Protocol: as §1, §3

K. pneumoniae KKBO-4 [8] = assay: as above; assay type: cell-based, Klebsiella pneumoniae; conditions: for MIC in combination, ATB: antimicrobial agent in combination with SET-M33
Protocol: as §1, §3

A. baumannii VA566/00 [9] = assay: as above; assay type: cell-based, Acinetobacter baumannii; conditions: for MIC in combination, ATB: antimicrobial agent in combination with SET-M33
Protocol: as §1, §3

A. baumannii N50 [10] = assay: as above; assay type: cell-based, Acinetobacter baumannii; conditions: for MIC in combination, ATB: antimicrobial agent in combination with SET-M33
Protocol: as §1, §3

A. baumannii VA566/00 [11] = assay: MIC, standard broth microdilution; assay type: cell-based; conditions: Acinetobacter baumannii
Protocol: as §1, §2

P. aeruginosa AV65 [12] = assay: MIC, standard broth microdilution; assay type: cell-based; conditions: Pseudomonas aeruginosa
Protocol: as §1, §2

[13] = test system: 6 MDR/XDR Gram-negative strains; assay type: cell-based
Protocol: as §1, §2

[14] = test system: 6 MDR/XDR Gram-negative strains; assay: Checkerboard combination testing, summary over the six strains; assay type: cell-based
Protocol: as §1, §3

[15] = agent alone, A. baumannii N50 (MDR, OXA-24, colR), read-out: MIC
[16] = Pseudomonas aeruginosa, agent alone, P. aeruginosa 854 (XDR, VIM-1), read-out: MIC
[17] = SET-M33 in combination with aztreonam
[18] = SET-M33 in combination with meropenem
[19] = SET-M33 in combination with rifampin
[20] = SET-M33 in combination with tobramycin
[21] = agent alone, K. pneumoniae KKBO-4 (XDR, KPC, colR), read-out: MIC

CO[C@H]1/C=C/O[C@@]2(C)Oc3c(C)c(O)c4c(O)c(c(/C=N/N5CCN(C)CC5)c(O)c4c3C2=O)NC(=O)/C(C)=C\C=C\[C@H](C)[C@H](O)[C@@H](C)[C@@H](O)[C@@H](C)[C@H](OC(C)=O)[C@@H]1C [rifampin]
MIC (A. baumannii N50 [1]; [15]): 64 µg/mL (≈ 77.8 µM)
MIC (K. pneumoniae 044-R [2]): 64 µg/mL (≈ 77.8 µM)
MIC (K. pneumoniae KKBO-4 [3]): 128 µg/mL (≈ 156 µM)
MIC in combination, ATB (P. aeruginosa 854 [4]): 8 µg/mL
MIC in combination, ATB (P. aeruginosa AV65 [5]): 64 µg/mL
MIC (P. aeruginosa 854 [6]; [16]): 32 µg/mL (≈ 38.9 µM)
MIC in combination, ATB (K. pneumoniae 044-R [7]): 16 µg/mL
MIC in combination, ATB (K. pneumoniae KKBO-4 [8]): 32 µg/mL
MIC in combination, ATB (A. baumannii VA566/00 [9]): 2 µg/mL
MIC in combination, ATB (A. baumannii N50 [10]): 4 µg/mL
MIC (A. baumannii VA566/00 [11]; VA566/00): 256 µg/mL (≈ 311 µM)
MIC (P. aeruginosa AV65 [12]; AV65): 128 µg/mL (≈ 156 µM)

CC[C@H](C)[C@H](NC(=O)[C@H](CCCCN)NC(=O)[C@@H](N)CCCCN)C(=O)N[C@@H](CCCNC(=N)N)C(=O)N[C@H](C(=O)N[C@@H](CCCNC(=N)N)C(=O)N[C@@H](CC(C)C)C(=O)N[C@@H](CO)C(=O)N[C@@H](C)C(=O)O)C(C)C (stereo in doubt) [SET-M33]
MIC values [13]: 4 to 32 µg/mL
MIC in combination, SET-M33 (P. aeruginosa 854 [4]; [17]): 8 µg/mL
MIC in combination, SET-M33 (P. aeruginosa 854 [4]; [18]): 8 µg/mL
MIC in combination, SET-M33 (P. aeruginosa 854 [4]; [19]): 8 µg/mL
MIC in combination, SET-M33 (P. aeruginosa 854 [4]; [20]): 8 µg/mL
MIC in combination, SET-M33 (P. aeruginosa AV65 [5]; [17]): 8 µg/mL
MIC in combination, SET-M33 (P. aeruginosa AV65 [5]; [18]): 4 µg/mL
MIC in combination, SET-M33 (P. aeruginosa AV65 [5]; [19]): 8 µg/mL
MIC in combination, SET-M33 (P. aeruginosa AV65 [5]; [20]): 2 µg/mL
MIC (P. aeruginosa 854 [6]; 854): 16 µg/mL (≈ 14.9 µM)
MIC in combination, SET-M33 (K. pneumoniae 044-R [7]; [17]): 8 µg/mL
MIC in combination, SET-M33 (K. pneumoniae 044-R [7]; [18]): 8 µg/mL
MIC in combination, SET-M33 (K. pneumoniae 044-R [7]; [19]): 4 µg/mL
MIC in combination, SET-M33 (K. pneumoniae 044-R [7]; [20]): 16 µg/mL
MIC in combination, SET-M33 (K. pneumoniae KKBO-4 [8]; [17]): 8 µg/mL
MIC in combination, SET-M33 (K. pneumoniae KKBO-4 [8]; [18]): 8 µg/mL
MIC in combination, SET-M33 (K. pneumoniae KKBO-4 [8]; [19]): 4 µg/mL
MIC in combination, SET-M33 (K. pneumoniae KKBO-4 [8]; [20]): 16 µg/mL
interaction in combination (ΣFIC interpretation) ([14]; SET-M33 in combination with aztreonam, colistin-resistant strains of K. pneumoniae): synergistic activity
interaction in combination (ΣFIC interpretation) ([14]; SET-M33 in combination with ciprofloxacin, data not shown): Additivity
interaction in combination (ΣFIC interpretation) ([14]; SET-M33 in combination with rifampin, colistin-resistant strains of K. pneumoniae): synergistic activity
interaction in combination (ΣFIC interpretation) ([14]; SET-M33 in combination with tobramycin, one of the A. baumannii strains): Synergy
effect of combination on SET-M33 MIC values ([14]; when a synergistic effect was present, e.g. with rifampin, aztreonam and tobramycin): moderately affected
effect of combination on SET-M33 MIC values ([14]; when the effect was additive or indifferent): not affected
MIC in combination, SET-M33 (A. baumannii VA566/00 [9]; [17]): 4 µg/mL
MIC in combination, SET-M33 (A. baumannii VA566/00 [9]; [18]): 4 µg/mL
MIC in combination, SET-M33 (A. baumannii VA566/00 [9]; [19]): 4 µg/mL
MIC in combination, SET-M33 (A. baumannii VA566/00 [9]; [20]): 8 µg/mL
MIC in combination, SET-M33 (A. baumannii N50 [10]; [17]): 4 µg/mL
MIC in combination, SET-M33 (A. baumannii N50 [10]; [18]): 4 µg/mL
MIC in combination, SET-M33 (A. baumannii N50 [10]; [19]): 8 µg/mL
MIC in combination, SET-M33 (A. baumannii N50 [10]; [20]): 8 µg/mL

NC[C@H]1O[C@H](O[C@H]2[C@H](O)[C@@H](O[C@H]3O[C@H](CO)[C@@H](O)[C@H](N)[C@H]3O)[C@H](N)C[C@@H]2N)[C@H](N)C[C@@H]1O [tobramycin]
MIC (A. baumannii N50 [1]; [15]): 8 µg/mL (≈ 17.1 µM)
MIC (K. pneumoniae 044-R [2]): 32 µg/mL (≈ 68.4 µM)
MIC (K. pneumoniae KKBO-4 [3]; [21]): 32 µg/mL (≈ 68.4 µM)
MIC in combination, ATB (P. aeruginosa 854 [4]): 256 µg/mL
MIC in combination, ATB (P. aeruginosa AV65 [5]): 128 µg/mL
MIC (P. aeruginosa 854 [6]; [16]): 256 µg/mL (≈ 548 µM)
MIC in combination, ATB (K. pneumoniae 044-R [7]): 16 µg/mL
MIC in combination, ATB (K. pneumoniae KKBO-4 [8]): 16 µg/mL
MIC in combination, ATB (A. baumannii VA566/00 [9]): 4 µg/mL
MIC in combination, ATB (A. baumannii N50 [10]): 0.5 µg/mL
MIC (A. baumannii VA566/00 [11]; agent alone, A. baumannii VA566/00 (MDR, OXA-24), read-out: MIC): 16 µg/mL (≈ 34.2 µM)
MIC (P. aeruginosa AV65 [12]; AV65): 128 µg/mL (≈ 274 µM)

C[C@@H](O)[C@H]1C(=O)N2C(C(=O)O)=C(S[C@@H]3CN[C@H](C(=O)N(C)C)C3)[C@H](C)[C@H]12 [meropenem]
MIC (A. baumannii N50 [1]; N50): 256 µg/mL (≈ 668 µM)
MIC (K. pneumoniae 044-R [2]): 64 µg/mL (≈ 167 µM)
MIC (K. pneumoniae KKBO-4 [3]; [21]): 64 µg/mL (≈ 167 µM)
MIC in combination, ATB (P. aeruginosa 854 [4]): 16 µg/mL
MIC in combination, ATB (P. aeruginosa AV65 [5]): 64 µg/mL
MIC (P. aeruginosa 854 [6]; Pseudomonas aeruginosa, 854): 512 µg/mL (≈ 1340 µM)
MIC in combination, ATB (K. pneumoniae 044-R [7]): 32 µg/mL
MIC in combination, ATB (K. pneumoniae KKBO-4 [8]): 32 µg/mL
MIC in combination, ATB (A. baumannii VA566/00 [9]): 4 µg/mL
MIC in combination, ATB (A. baumannii N50 [10]): 64 µg/mL
MIC (A. baumannii VA566/00 [11]; VA566/00): 512 µg/mL (≈ 1340 µM)
MIC (P. aeruginosa AV65 [12]; AV65): 256 µg/mL (≈ 668 µM)

C[C@H]1[C@H](NC(=O)/C(=N\OC(C)(C)C(=O)O)c2csc(N)n2)C(=O)N1S(=O)(=O)O [aztreonam]
MIC (A. baumannii N50 [1]; N50): 128 µg/mL (≈ 294 µM)
MIC in combination, ATB (P. aeruginosa 854 [4]): 64 µg/mL
MIC in combination, ATB (P. aeruginosa AV65 [5]): 1 µg/mL
MIC (P. aeruginosa 854 [6]; Pseudomonas aeruginosa, 854): 128 µg/mL (≈ 294 µM)
MIC in combination, ATB (A. baumannii VA566/00 [9]): 16 µg/mL
MIC in combination, ATB (A. baumannii N50 [10]): 32 µg/mL
MIC (A. baumannii VA566/00 [11]; VA566/00): 512 µg/mL (≈ 1180 µM)
MIC (P. aeruginosa AV65 [12]; agent alone, P. aeruginosa AV65 (XDR, IMP-13), read-out: MIC): 32 µg/mL (≈ 73.5 µM)
